Reference: US10167257B2, “Indole derivatives for use in medicine” (IOmet Pharma Ltd., priority 2014, dated 2019)

Assays:
[1] = molecular target: T1, TDO (A172 cells) (Homo sapiens, UniProt P48775); test: TDO cell-based assay (A172), kynurenine production; conditions: A172 human glioblastoma cells, 500 μM L-Trp, 48 h, kynurenine by absorbance at 490 nm
T1 construct: This assay utilised cancer cells which expressed either TDO or IDO; host or cells: A172 human glioblastoma cells
In short: (§1)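 SKOV-3 cells (IDO, induced with 500 ng/ml IFNγ) or A172 glioblastoma cells (TDO) were incubated with compound and 500 μM L-Trp for 48 h at 37 °C in phenol-red-free RPMI with dialysed serum. Supernatant kynurenine was measured with 1% Ehrlich's reagent as absorbance at 490 nm.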

[2] = molecular target: T2, IDO (SKOV-3 cells) (Homo sapiens, UniProt P14902); test: IDO cell-based assay (SKOV-3, IFNγ-induced), kynurenine production; conditions: SKOV-3 ovary adenocarcinoma cells, IFNγ 500 ng/ml, 500 μM L-Trp, 48 h, kynurenine by absorbance at 490 nm
T2 construct: This assay utilised cancer cells which expressed either TDO or IDO; host or cells: SKOV-3 ovary adenocarcinoma cells, IFNγ-induced
In short: as §1

T2 sequence (P14902 whole entry): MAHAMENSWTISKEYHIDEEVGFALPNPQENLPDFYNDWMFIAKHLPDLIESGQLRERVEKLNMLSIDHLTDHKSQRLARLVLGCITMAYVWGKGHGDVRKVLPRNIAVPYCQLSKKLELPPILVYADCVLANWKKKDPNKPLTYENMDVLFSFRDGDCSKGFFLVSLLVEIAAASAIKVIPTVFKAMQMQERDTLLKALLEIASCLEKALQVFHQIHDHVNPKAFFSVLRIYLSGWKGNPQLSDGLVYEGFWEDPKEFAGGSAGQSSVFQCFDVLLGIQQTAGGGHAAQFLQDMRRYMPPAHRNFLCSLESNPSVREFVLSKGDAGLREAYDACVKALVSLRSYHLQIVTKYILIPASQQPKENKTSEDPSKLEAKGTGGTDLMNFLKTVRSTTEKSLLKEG
T1 sequence (P48775 whole entry): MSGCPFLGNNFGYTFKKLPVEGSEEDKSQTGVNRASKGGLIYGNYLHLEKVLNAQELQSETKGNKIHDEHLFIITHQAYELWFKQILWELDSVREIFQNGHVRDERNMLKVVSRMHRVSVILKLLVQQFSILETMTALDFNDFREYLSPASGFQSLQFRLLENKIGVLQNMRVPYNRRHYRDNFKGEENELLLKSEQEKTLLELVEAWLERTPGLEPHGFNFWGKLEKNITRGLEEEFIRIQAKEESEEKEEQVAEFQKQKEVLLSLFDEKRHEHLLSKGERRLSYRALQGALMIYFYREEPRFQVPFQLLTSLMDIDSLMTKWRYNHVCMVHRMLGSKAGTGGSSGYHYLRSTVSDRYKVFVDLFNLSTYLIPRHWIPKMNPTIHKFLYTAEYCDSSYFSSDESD

Row | TDO cellular assay (A172) pIC50 [1] | IDO cellular assay (SKOV3) pIC50 [2] | SMILES
1 | − (− = pIC50 <4.50) | +++ (+++ = pIC50 ≥5.50) | Cn1cc(C2(NC(=O)c3cc4cc(OC(F)(F)F)ccc4[nH]3)CC2)cn1 [Compound 275]
2 | − (− = pIC50 <4.50) | +++ (+++ = pIC50 ≥5.50) | C[C@@H](NC(=O)c1cc2cc(C(F)(F)F)ccc2[nH]1)c1ccccc1 [Compound 158]
3 | + (+ = pIC50 4.50-<5.00) | ++ (++ = pIC50 5.00-<5.50) | Cc1ccc(C(C)NC(=O)c2cc3cc(F)ccc3[nH]2)o1 (centres unmarked) [Compound 24]
4 | − (− = pIC50 <4.50) | + (+ = pIC50 4.50-<5.00) | COc1ccc2cc(C(=O)NC(C)c3cnn(C)c3)[nH]c2c1 (centres unmarked) [Compound 166]
5 | + (+ = pIC50 4.50-<5.00) | + (+ = pIC50 4.50-<5.00) | C[C@@H](NC(=O)c1cc2ccc(O)cc2[nH]1)c1ccccc1 [Compound 185]
6 | +++ (+++ = pIC50 ≥5.50) | +++ (+++ = pIC50 ≥5.50) | CC(NC(=O)c1cc2cc(C#N)ccc2[nH]1)c1ccccc1 (centres unmarked) [Compound 82]
7 | − (− = pIC50 <4.50) | + (+ = pIC50 4.50-<5.00) | O=C(NC1(c2ccccc2)CC1)c1cc2ccc(O)cc2[nH]1 [Compound 172]
8 | − (− = pIC50 <4.50) | ++ (++ = pIC50 5.00-<5.50) | O=C(NC(c1ccccc1)c1ccccc1)c1cc2cc(Cl)ccc2[nH]1 [Compound 237]
9 | − (− = pIC50 <4.50) | ++ (++ = pIC50 5.00-<5.50) | COc1ccc2cc(C(=O)NC3(c4ccccc4)CC3)[nH]c2c1 [Compound 162]
10 | − (− = pIC50 <4.50) | +++ (+++ = pIC50 ≥5.50) | CC(=O)N1CC(C(C)NC(=O)c2cc3cc(Cl)ccc3[nH]2)C1 (centres unmarked) [Compound 147]
11 | + (+ = pIC50 4.50-<5.00) | +++ (+++ = pIC50 ≥5.50) | COc1ccc(-n2cc(C(C)NC(=O)c3cc4cc(Cl)ccc4[nH]3)cn2)cc1OC (centres unmarked) [Compound 207]
12 | + (+ = pIC50 4.50-<5.00) | +++ (+++ = pIC50 ≥5.50) | O=C(NC1(c2ccccc2)CC1)c1cc2cc(Cl)cc(F)c2[nH]1 [Compound 188]
13 | + (+ = pIC50 4.50-<5.00) | +++ (+++ = pIC50 ≥5.50) | C[C@@H](NC(=O)c1cc2cc(Cl)c(F)cc2[nH]1)c1ccccc1 [Compound 208]
14 | − (− = pIC50 <4.50) | +++ (+++ = pIC50 ≥5.50) | Cn1cc(C2(NC(=O)c3cc4cc(Cl)ccc4[nH]3)CCCCC2)cn1 [Compound 251]
15 | + (+ = pIC50 4.50-<5.00) | ++ (++ = pIC50 5.00-<5.50) | Cc1ccccc1C1CCN(CCNC(=O)c2cc3cc(Cl)ccc3[nH]2)C1 (centres unmarked) [Compound 118]
16 | − (− = pIC50 <4.50) | ++ (++ = pIC50 5.00-<5.50) | O=C(NCCc1nccs1)c1cc2cc(Cl)ccc2[nH]1 [Compound 110]
17 | ++ (++ = pIC50 5.00-<5.50) | +++ (+++ = pIC50 ≥5.50) | CC(NC(=O)c1cc2cc(Cl)ccc2[nH]1)c1ccc(S(C)(=O)=O)cc1 (centres unmarked) [Compound 84]
18 | + (+ = pIC50 4.50-<5.00) | ++ (++ = pIC50 5.00-<5.50) | Cc1nc(C(C)NC(=O)c2cc3cc(Cl)ccc3[nH]2)no1 (centres unmarked) [Compound 212]
19 | − (− = pIC50 <4.50) | ++ (++ = pIC50 5.00-<5.50) | COc1cccc(-c2cc(CNC(=O)c3cc4cc(Cl)ccc4[nH]3)on2)c1 [Compound 109]

Further lines, the compound ahead of its results:

Row | SMILES | TDO cellular assay (A172) pIC50 [1] | IDO cellular assay (SKOV3) pIC50 [2]
20 | O=C(NC1(c2ccccc2)CC1)c1cc2cc(OC(F)(F)F)ccc2[nH]1 [Compound 248] | − (− = pIC50 <4.50) | +++ (+++ = pIC50 ≥5.50)
21 | Cn1cc(C2(NC(=O)c3cc4cc(Cl)ccc4[nH]3)CCCC2)cn1 [Compound 250] | − (− = pIC50 <4.50) | +++ (+++ = pIC50 ≥5.50)
22 | O=C(NC1(c2ccccc2)CC1)c1cc2cc(C(F)(F)F)ccc2[nH]1 [Compound 156] | − (− = pIC50 <4.50) | +++ (+++ = pIC50 ≥5.50)
23 | CCn1cc(C2(NC(=O)c3cc4cc(Cl)ccc4[nH]3)CC2)cn1 [Compound 214] | − (− = pIC50 <4.50) | +++ (+++ = pIC50 ≥5.50)
24 | CCC(NC(=O)c1cc2cc(Cl)ccc2[nH]1)c1ccccc1 (centres unmarked) [Compound 114] | − (− = pIC50 <4.50) | +++ (+++ = pIC50 ≥5.50)
25 | O=C(NCc1cccc(Cl)c1)c1cc2ccccc2[nH]1 [Compound 30] | − (− = pIC50 <4.50) | + (+ = pIC50 4.50-<5.00)
26 | CC(=O)N1CCC(C(C)NC(=O)c2cc3cc(Cl)ccc3[nH]2)CC1 (centres unmarked) [Compound 105] | − (− = pIC50 <4.50) | +++ (+++ = pIC50 ≥5.50)
27 | CC(C)Oc1ccc2[nH]c(C(=O)NC(C)c3cnn(C)c3)cc2c1 (centres unmarked) [Compound 262] | − (− = pIC50 <4.50) | + (+ = pIC50 4.50-<5.00)
28 | C[C@H](NC(=O)c1cc2cc(Cl)ccc2[nH]1)c1ccc(Cl)cc1 [Compound 75] | − (− = pIC50 <4.50) | +++ (+++ = pIC50 ≥5.50)
29 | Cn1cc(C2(NC(=O)c3cc4cc(C#N)ccc4[nH]3)CC2)cn1 [Compound 145] | − (− = pIC50 <4.50) | +++ (+++ = pIC50 ≥5.50)
30 | CC(NC(=O)c1cc2cc(F)ccc2[nH]1)c1cccnc1 (centres unmarked) [Compound 54] | − (− = pIC50 <4.50) | + (+ = pIC50 4.50-<5.00)
31 | Cc1ccc2cc(C(=O)NC(C)c3ccccc3)[nH]c2c1 (centres unmarked) [Compound 78] | + (+ = pIC50 4.50-<5.00) | ++ (++ = pIC50 5.00-<5.50)
32 | Cc1c(C(=O)N[C@@H](C)c2ccccc2)[nH]c2ccc(F)cc12 [Compound 60] | + (+ = pIC50 4.50-<5.00) | + (+ = pIC50 4.50-<5.00)
33 | CC(NC(=O)c1cc2ccc(C#N)cc2[nH]1)c1ccccc1 (centres unmarked) [Compound 85] | ++ (++ = pIC50 5.00-<5.50) | ++ (++ = pIC50 5.00-<5.50)
34 | COc1ccc2[nH]c(C(=O)N[C@H](C)c3ccccc3)cc2c1 [Compound 175] | − (− = pIC50 <4.50) | +++ (+++ = pIC50 ≥5.50)
35 | O=C(NC1(c2cnn(-c3ccccc3)c2)CC1)c1cc2cc(Cl)ccc2[nH]1 [Compound 151] | − (− = pIC50 <4.50) | +++ (+++ = pIC50 ≥5.50)
36 | CC(NC(=O)c1cc2cc(Cl)ccc2[nH]1)c1ncco1 (centres unmarked) [Compound 104] | + (+ = pIC50 4.50-<5.00) | ++ (++ = pIC50 5.00-<5.50)
37 | O=C(NC1(c2ccccc2)CC1)c1cc2cc(Br)ccc2[nH]1 [Compound 253] | − (− = pIC50 <4.50) | +++ (+++ = pIC50 ≥5.50)
